pIC50: −log10 of the molar value. Read-outs that look alike come from different tables or passages of the source.
Target: human recombinant GPR65 (Homo sapiens, UniProt Q8IYL9)
Assay: Human GPR65 cAMP HTRF antagonist assay
Format: cell-based
Summary of the method: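 1321N1 astrocytoma cells stably expressing hrGPR65, with IBMX and EDTA, were preincubated with compound 30 min at room temperature, then acid-activated at assay pH 7.2 (control pH 7.9) for 30 min. cAMP read by HTRF (665/620 nm ratio); IC50 from 4-parameter fit normalised to high/low controls.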

[1] = 1321N1-hrGPR65 cells, cAMP HTRF, assay pH 7.2, read-out: hGPR65 IC50 (Activity of selected compounds according to the invention)

Sequence of human recombinant GPR65 (Q8IYL9 whole entry): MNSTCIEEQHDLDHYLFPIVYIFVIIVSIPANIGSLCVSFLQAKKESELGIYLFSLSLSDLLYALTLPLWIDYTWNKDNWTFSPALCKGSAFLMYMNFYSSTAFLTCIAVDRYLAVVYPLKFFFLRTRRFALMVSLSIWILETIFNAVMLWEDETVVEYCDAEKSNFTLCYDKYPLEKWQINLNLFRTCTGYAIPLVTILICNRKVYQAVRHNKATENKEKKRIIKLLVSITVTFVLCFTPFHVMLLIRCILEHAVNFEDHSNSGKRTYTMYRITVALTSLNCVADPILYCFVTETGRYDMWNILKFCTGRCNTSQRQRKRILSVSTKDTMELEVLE

SMILES: O=C(Nc1cc(-c2ccccc2)c(C(F)(F)F)cc1F)N1[C@H]2CC[C@@H]1c1n[nH]c(=O)cc1C2 [Compound 258, (6S,9R)-N-(4-Fluoro-6-(trifluoromethyl)-[1,1′-biphenyl]-3-yl)-3-oxo-3,5,6,7,8,9-hexahydro-2H-6,9-epiminocyclohepta[c]pyridazine-10-carboxamide]
- pIC50: > 6.30

SMILES: O=C(Nc1cc(Cl)c(-c2ccncc2)cc1F)N1[C@H]2CC[C@@H]1c1n[nH]c(=O)cc1C2 [Compound 173, (6S,9R)-N-(5-Chloro-2-fluoro-4-(pyridin-4-yl)phenyl)-3-oxo-3,5,6,7,8,9-hexahydro-2H-6,9-epiminocyclohepta[c]pyridazine-10-carboxamide]
- pIC50: > 6.30

SMILES: O=C(Nc1cc(Cl)c(-c2ccnnc2)cc1F)N1[C@H]2CC[C@@H]1c1n[nH]c(=O)cc1C2 [Compound 174, (6S,9R)-N-(5-Chloro-2-fluoro-4-(pyridazin-4-yl)phenyl)-3-oxo-3,5,6,7,8,9-hexahydro-2H-6,9-epiminocyclohepta[c]pyridazine-10-carboxamide]
- pIC50 [1]: < 5.30

SMILES: O=C(Nc1c(F)cc(Cl)c(Cl)c1F)N1[C@H]2CC[C@@H]1c1n[nH]c(=O)cc1C2 [Compound 308, (6S,9R)-N-(3,4-Dichloro-2,6-difluorophenyl)-3-oxo-3,5,6,7,8,9-hexahydro-2H-6,9-epiminocyclohepta[c]pyridazine-10-carboxamide]
- pIC50 [1]: 5.30 to 6.30

SMILES: Cc1nc2ccc(-c3cc(F)c(NC(=O)N4[C@H]5CC[C@@H]4c4n[nH]c(=O)cc4C5)cc3Cl)cc2o1 [Compound 170, (6S,9R)-N-(5-Chloro-2-fluoro-4-(2-methylbenzo[d]oxazol-6-yl)phenyl)-3-oxo-3,5,6,7,8,9-hexahydro-2H-6,9-epiminocyclohepta[c]pyridazine-10-carboxamide]
- pIC50: > 6.30

SMILES: O=C(Nc1cc(Cl)c(C(F)(F)F)cc1F)N1C2CCC1[C@@H](O)c1c2ccnc1F (mixture of isomers) [Compound 156, (±)-(9S)—N-(5-chloro-2-fluoro-4-(trifluoromethyl)phenyl)-1-fluoro-9-hydroxy-6,7,8,9-tetrahydro-5H-5,8-epiminocyclohepta[c]pyridine-10-carboxamide]
- pIC50 [1]: 5.30 to 6.30

SMILES: O=C(Nc1cc(Cl)c(C2CC2)cc1F)N1[C@H]2CC[C@@H]1c1ccnc(F)c1C2 [Compound 63, (5R,8S)-N-(5-Chloro-4-cyclopropyl-2-fluorophenyl)-1-fluoro-6,7,8,9-tetrahydro-5H-5,8-epiminocyclohepta[c]pyridine-10-carboxamide]
- pIC50: > 6.30

SMILES: CO[C@H]1C[C@@H](Oc2ccc(NC(=O)N3C4CCC3c3n[nH]c(=O)cc3C4)cc2Cl)C1 (mixture of isomers) [Compound 36, (±)-N-(3-Chloro-4-((1s,3S)-3-methoxycyclobutoxy)phenyl)-3-oxo-3,5,6,7,8,9-hexahydro-2H-6,9-epiminocyclohepta[c]pyridazine-10-carboxamide]
- pIC50 [1]: < 5.30

SMILES: O=C(Nc1cc(Cl)c(Cl)cc1F)N1[C@H]2CC[C@@H]1c1nccc(F)c1C2 [Compound 91, (6S,9R)-N-(4,5-dichloro-2-fluorophenyl)-4-fluoro-6,7,8,9-tetrahydro-5H-6,9-epiminocyclohepta[b]pyridine-10-carboxamide]
- pIC50 [1]: 5.30 to 6.30

SMILES: O=C(Nc1cc(Br)c(Cl)cc1F)N1[C@@H]2CC[C@H]1c1c[nH]c(=O)nc1C2 [Compound 27, (5S,8R)-N-(5-Bromo-4-chloro-2-fluorophenyl)-2-oxo-3,5,6,7,8,9-hexahydro-2H-5,8-epiminocyclohepta[d]pyrimidine-10-carboxamide]
- pIC50 [1]: 5.30 to 6.30

SMILES: O=C(Nc1cc(Cl)c(C(F)(F)F)cc1F)N1[C@@H]2CC[C@H]1c1ccnc(F)c1C2 [Compound 194, (5S,8R)-N-(5-Chloro-2-fluoro-4-(trifluoromethyl)phenyl)-1-fluoro-6,7,8,9-tetrahydro-5H-5,8-epiminocyclohepta[c]pyridine-10-carboxamide]
- pIC50: > 6.30

SMILES: O=C(Nc1ccc(C(F)(F)F)c(Br)c1)N1[C@@H]2CC[C@H]1c1n[nH]c(=O)cc1C2 [Compound 30, (6R,9S)-N-(3-Bromo-4-(trifluoromethyl)phenyl)-3-oxo-3,5,6,7,8,9-hexahydro-2H-6,9-epiminocyclohepta[c]pyridazine-10-carboxamide]
- pIC50: < 5.30

SMILES: O=C(Nc1cc(Cl)c(-c2ccc(F)nc2)cc1F)N1[C@H]2CC[C@@H]1c1n[nH]c(=O)cc1C2 [Compound 109, (6S,9R)-N-(5-Chloro-2-fluoro-4-(6-fluoropyridin-3-yl)phenyl)-3-oxo-3,5,6,7,8,9-hexahydro-2H-6,9-epiminocyclohepta[c]pyridazine-10-carboxamide]
- pIC50: > 6.30

SMILES: N#Cc1cnc(NC(=O)N2C3CCC2c2n[nH]c(=O)cc2C3)cc1Cl (racemic) [Compound 43, (±)-N-(4-Chloro-5-cyanopyridin-2-yl)-3-oxo-3,5,6,7,8,9-hexahydro-2H-6,9-epiminocyclohepta[c]pyridazine-10-carboxamide]
- pIC50 [1]: 5.30 to 6.30

SMILES: O=C(Nc1cc(Cl)c(-c2ccnc(F)c2)cc1F)N1[C@H]2CC[C@@H]1c1c[nH]c(=O)cc1C2 [Compound 267, (6S,9R)-N-(5-Chloro-2-fluoro-4-(2-fluoropyridin-4-yl)phenyl)-3-oxo-3,5,6,7,8,9-hexahydro-2H-6,9-epiminocyclohepta[c]pyridine-10-carboxamide]
- pIC50: > 6.30

SMILES: O=C(Nc1cc(Cl)c(-c2ccc(OC3CC(F)(F)C3)nc2)cc1F)N1[C@H]2CC[C@@H]1c1n[nH]c(=O)cc1C2 [Compound 292, (6S,9R)-N-(5-Chloro-4-(6-(3,3-difluorocyclobutoxy)pyridin-3-yl)-2-fluorophenyl)-3-oxo-3,5,6,7,8,9-hexahydro-2H-6,9-epiminocyclohepta[c]pyridazine-10-carboxamide]
- pIC50: > 6.30

SMILES: CO[C@H]1C[C@@H](Oc2ccc(-c3cc(F)c(NC(=O)N4[C@H]5CC[C@@H]4c4n[nH]c(=O)cc4C5)cc3Cl)cn2)C1 [Compound 304, (6S,9R)-N-(5-Chloro-2-fluoro-4-(6-((1s,3S)-3-methoxycyclobutoxy)pyridin-3-yl)phenyl)-3-oxo-3,5,6,7,8,9-hexahydro-2H-6,9-epiminocyclohepta[c]pyridazine-10-carboxamide]
- pIC50: > 6.30

SMILES: O=C(Nc1cc(Cl)c(-c2ccc(OCC3CC3(F)F)nc2)cc1F)N1[C@H]2CC[C@@H]1c1n[nH]c(=O)cc1C2 (stereo partly drawn) [Compound 338, (6S,9R)-N-(5-Chloro-4-(6-((2,2-difluorocyclopropyl)methoxy)pyridin-3-yl)-2-fluorophenyl)-3-oxo-3,5,6,7,8,9-hexahydro-2H-6,9-epiminocyclohepta[c]pyridazine-10-carboxamide]
- pIC50: > 6.30

SMILES: O=C(Nc1cc(Cl)c(OC2CCC2)cc1F)N1[C@H]2CC[C@@H]1c1ccnc(F)c1C2 [Compound 67, (5R,8S)-N-(5-Chloro-4-cyclobutoxy-2-fluorophenyl)-1-fluoro-6,7,8,9-tetrahydro-5H-5,8-epiminocyclohepta[c]pyridine-10-carboxamide]
- pIC50: > 6.30

SMILES: CNC(=O)c1ccc(-c2cc(F)c(NC(=O)N3[C@H]4CC[C@@H]3c3n[nH]c(=O)cc3C4)cc2Cl)cc1 [Compound 130, (6S,9R)-N-(2-Chloro-5-fluoro-4′-(methylcarbamoyl)-[1,1′-biphenyl]-4-yl)-3-oxo-3,5,6,7,8,9-hexahydro-2H-6,9-epiminocyclohepta[c]pyridazine-10-carboxamide]
- pIC50 [1]: 5.30 to 6.30

SMILES: O=C(Nc1cc(F)c(-c2ccc(C(F)(F)F)nc2)cc1F)N1[C@H]2CC[C@@H]1c1n[nH]c(=O)cc1C2 [Compound 286, (6S,9R)-N-(2,5-Difluoro-4-(6-(trifluoromethyl)pyridin-3-yl)phenyl)-3-oxo-3,5,6,7,8,9-hexahydro-2H-6,9-epiminocyclohepta[c]pyridazine-10-carboxamide]
- pIC50: > 6.30

SMILES: O=C(Nc1cc(Cl)c(COc2ccc(F)nc2)cc1F)N1[C@H]2CC[C@@H]1c1n[nH]c(=O)cc1C2 [Compound 293, (6S,9R)-N-(5-Chloro-2-fluoro-4-(((6-fluoropyridin-3-yl)oxy)methyl)phenyl)-3-oxo-3,5,6,7,8,9-hexahydro-2H-6,9-epiminocyclohepta[c]pyridazine-10-carboxamide]
- pIC50: > 6.30

SMILES: O=C(Nc1cc(Cl)c(-c2ccc3nsnc3c2)cc1F)N1[C@H]2CC[C@@H]1c1n[nH]c(=O)cc1C2 [Compound 168, (6S,9R)-N-(4-(Benzo[c][1,2,5]thiadiazol-5-yl)-5-chloro-2-fluorophenyl)-3-oxo-3,5,6,7,8,9-hexahydro-2H-6,9-epiminocyclohepta[c]pyridazine-10-carboxamide]
- pIC50: > 6.30

SMILES: O=C(Nc1noc2ccccc12)N1[C@H]2CC[C@@H]1c1n[nH]c(=O)cc1C2 [Compound 187, (6S,9R)-N-(Benzo[d]isoxazol-3-yl)-3-oxo-3,5,6,7,8,9-hexahydro-2H-6,9-epiminocyclohepta[c]pyridazine-10-carboxamide]
- pIC50: 5.30 to 6.30

SMILES: O=C(Nc1cc(Br)c(Cl)cc1F)N1[C@@H]2CC[C@H]1c1n[nH]c(=O)cc1C2 [Compound 38, (6R,9S)-N-(5-Bromo-4-chloro-2-fluorophenyl)-3-oxo-3,5,6,7,8,9-hexahydro-2H-6,9-epiminocyclohepta[c]pyridazine-10-carboxamide]
- pIC50: 5.30 to 6.30

SMILES: O=C(Nc1cc(Cl)c(-c2ccc3nonc3c2)cc1F)N1[C@H]2CC[C@@H]1C(F)(F)c1c2ccnc1F [Compound 329, (5S,8R)-N-(4-(Benzo[c][1,2,5]-oxadiazol-5-yl)-5-chloro-2-fluorophenyl)-1,9,9-trifluoro-6,7,8,9-tetrahydro-5H-5,8-epiminocyclohepta[c]pyridine-10-carboxamide]
- pIC50: 5.30 to 6.30

SMILES: O=C(Nc1cc(Cl)c(-c2ccsn2)cc1F)N1[C@H]2CC[C@@H]1c1n[nH]c(=O)cc1C2 [Compound 191, (6S,9R)-N-(5-Chloro-2-fluoro-4-(isothiazol-3-yl)phenyl)-3-oxo-3,5,6,7,8,9-hexahydro-2H-6,9-epiminocyclohepta[c]pyridazine-10-carboxamide]
- pIC50: > 6.30

From patent publication US20240368173A1, “TRICYCLIC GPR65 MODULATORS” (PATHIOS THERAPEUTICS LIMITED, priority 2021, published 2024)
